Consider eleven compounds from patent publication US4261994A, “1,2,4-Oxadiazole derivatives, their preparation and pharmaceutical use” (Synthelabo, priority 1977, dated 1981).

For data set [1], the system named is spontaneously hypertonic male rats. As to the kind of experiment: Anti-hypertensive activity in spontaneously hypertonic male rats (method of Gerold and Tschirky), systolic pressure by pulse at caudal artery. Format: in vivo. The note with it: Rattus norvegicus, po; for change in vivo at 20 mg/kg: administered dose 20 mg/kg orally; for change in vivo at 5 mg/kg: administered dose 5 mg/kg orally. As for the experimental part: The anti-hypertensive activity is evaluated on spontaneously hypertonic male rats in accordance with the method of Gerold and Tschirky (Arzneim. Forsch, 1968, 18, 1,285). The systolic pressure is measured by taking the pulse at the level of the caudal artery. […]

Data set [2] can be described thus: Toxicity, 50% lethal dose, intraperitoneal administration to CD1 male rats. To be noted: rat, in vivo, ip; intraperitoneally to rats, fasted 18 hours; read-out: 50% lethal dose (LD 50). As for the experimental part:
The toxicity of the compounds (I) was determined by intraperitoneal administration to CD1 (Charles River) male rats weighing 100 to 120 g, which had fasted for 18 hours.

The mark [3] stands for this setting: 4 hours, read-out: Anti-hypertensive activity %, 4 hours.
[4] abbreviates: 24 hours, read-out: Anti-hypertensive activity %, 24 hours.

Like-named read-outs stand apart in the source and are kept apart here.

Take `CN(C)c1noc(Cc2c(Cl)cccc2Cl)n1` [Compound 1]: the change in vivo at 20 mg/kg in data set [1] (setting [3]) is -33%; in data set [1] (setting [4]), -14%.
With `CNc1noc(Cc2c(Cl)cccc2Cl)n1` [Compound 2, 3-Methylamino-5-(2,6-dichlorobenzyl)-1,2,4-oxadiazole], the change in vivo at 20 mg/kg in data set [1] (setting [3]) was -18%; in data set [1] (setting [4]) it was -9%.
Take `CN(C)CCCNc1noc(Cc2c(Cl)cccc2Cl)n1` [Compound 6]: the LD50 in data set [2] is below 250 mg/kg. In addition, the change in vivo at 20 mg/kg in data set [1] (setting [3]) is -5%; in data set [1] (setting [4]) it was -7%.
With `CN(C)C=Nc1noc(Cc2c(Cl)cccc2Cl)n1` [Compound 9], in data set [2], the LD50 was above 500 mg/kg. For the same compound, the figures for the change in vivo at 20 mg/kg in data set [1] (setting [3]) and in data set [1] (setting [4]) were -29% and -15%, respectively.
Consider `CN1CCN(C=Nc2noc(Cc3c(Cl)cccc3Cl)n2)CC1` [Compound 10], for which the LD50 in data set [2] was below 500 mg/kg. For the same compound, the change in vivo at 20 mg/kg in data set [1] (setting [3]) is -29%.
For `OCCN(C=Nc1noc(Cc2c(Cl)cccc2Cl)n1)CCO` [Compound 11, 3-[N,N-Bis-(2-hydroxyethyl)-formamidino]-5-(2,6-dichlorobenzyl)-1,2,4-oxadiazole] the same measures were at least 500 mg/kg and -32%.
For `Cc1cccc(C)c1Cc1nc(N=CN(C)C)no1` [Compound 14], the change in vivo at 20 mg/kg in data set [1] (setting [3]) is -22%; in data set [1] (setting [4]), -13%.
As to `CN(C)C=Nc1noc(Cc2c(F)cccc2Cl)n1` [Compound 15], in data set [2], the LD50 is at most 500 mg/kg. For the same compound, the results for the change in vivo at 5 mg/kg in data set [1] (setting [3]) and in data set [1] (setting [4]) were -26% and -6%, respectively.
As for `Nc1noc(Cc2c(F)cccc2F)n1` [Compound 16], the change in vivo at 5 mg/kg in data set [1] (setting [3]) is -18%; in data set [1] (setting [4]), -1%.
Take `Nc1noc(Cc2c(Cl)cccc2Cl)n1` [Compound 18, 3-Amino-5-(2,6-dichlorobenzyl)-1,2,4-oxadiazole]: the LD50 in data set [2] was 250 mg/kg. Also, the change in vivo at 5 mg/kg in data set [1] (setting [3]) is -18%; in data set [1] (setting [4]), -3%.
Consider `Nc1noc(Cc2cc(Cl)ccc2Cl)n1` [Compound 19], for which the LD50 in data set [2] was at least 500 mg/kg. Moreover, the values for the change in vivo at 5 mg/kg in data set [1] (setting [3]) and in data set [1] (setting [4]) were -18% and -3%, respectively.
